Data as given in patent US20120129897A1, “BIS HETEROARYL INHIBITORS OF PRO-MATRIX METALLOPROTEINASE ACTIVATION” (priority 2010, published 2012).
Structures can show the parent of a compound that is named as a salt.

Assays:
[1] = biological target: T1, proMMP9(20-445;ΔFnII) (SEQ ID NO:6) (Homo sapiens, UniProt P14780, DEL216-390); experiment: ThermoFluor binding assay with proMMP9(20-445;ΔFnII)
T1 construct: start methionine (N); made in house; host or cells: E. coli BL21(DE3) RIL
T1 sequence (P14780 with tags, fused parts or gaps DEL216-390): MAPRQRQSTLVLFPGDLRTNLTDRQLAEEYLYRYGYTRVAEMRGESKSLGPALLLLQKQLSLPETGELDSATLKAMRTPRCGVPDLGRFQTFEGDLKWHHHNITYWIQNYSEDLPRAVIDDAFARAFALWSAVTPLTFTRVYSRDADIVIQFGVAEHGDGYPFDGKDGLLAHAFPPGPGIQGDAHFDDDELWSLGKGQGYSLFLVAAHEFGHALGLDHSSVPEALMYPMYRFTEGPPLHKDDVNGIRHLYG
Procedure: (§1) The ThermoFluor® (TF) assay is a 384-well plate-based binding assay that measures thermal stability of proteins (Biomol Screen 2001, 6, 429-40; Biochemistry 2005, 44, 5258-66). The experiments were carried out using instruments available from Johnson & Johnson Pharmaceutical Research & Development, LLC. TF dye used in all experiments was […] (1,8-ANS) (Invitrogen: A-47).
(§2) Compounds were arranged in a pre-dispensed plate (Greiner Bio-one: 781280), wherein compounds were serially diluted in 100% DMSO across 11 columns within a series. Columns 12 and 24 were used as DMSO reference and contained no compound. For multiple compound concentration-response experiments, the compound aliquots ([…]) were robotically predispensed directly into black 384-well polypropylene PCR microplates (Abgene: TF-0384/k) using a Cartesian Hummingbird liquid handler (DigiLab, Holliston, Mass.). Following compound dispense, protein and dye solutions were added to achieve the final assay volume of 3 μL. The assay solutions were overlayed with 1 μL of silicone oil (Fluka, type DC 200: 85411) to prevent evaporation.
(§3) Assay plates were robotically loaded onto a thermostatically controlled PCR-type thermal block and then heated from 40 to 90° C. at a ramp-rate of 1° C./min for all experiments. Fluorescence was measured by continuous illumination with UV light (Hamamatsu LC6) supplied via fiber optics and filtered through a band-pass filter (380-400 nm; >60D cutoff). Fluorescence emission of the entire 384-well plate was detected by measuring light intensity using a CCD camera (Sensys, Roper Scientific) filtered to detect 500±25 nm, resulting in simultaneous and independent readings of all 384 wells. A single image with 20-sec exposure time was collected at each temperature, and the sum of the pixel intensity in a given area of the assay plate was recorded vs temperature and fit to standard equations to yield the Tm (J Biomol Screen 2001, 6, 429-40).
(§4) Thermodynamic parameters necessary for fitting compound binding for each proMMP were estimated by differential scanning calorimetry (DSC) and from ThermoFluor® data. The heat capacity of unfolding for each protein was estimated from the molecular weight and from ThermoFluor® dosing data.
The protein sample preparations included a desalting buffer exchange step via a PD-10 gravity column (GE Healthcare). The desalting buffer exchange was performed prior to diluting the protein to the final assay concentration of 2.8 μM proMMP9(20-445;ΔFnII) (SEQ ID NO:6). The concentration of proMMP9(20-445;ΔFnII) (SEQ ID NO:6) was determined spectrophotometrically based on a calculated extinction coefficient of ε280=39880 M^−1cm^−1, a calculated molecular weight of 28.2 kDa, and calculated pI of 5.5. ThermoFluor® reference conditions were define as follows: 80 μg/mL (2.8 μM) proMMP9(20-445;ΔFnII) (SEQ ID NO:6), 50 μM 1,8-ANS, pH 7.0 Buffer (50 mM HEPES pH 7.0, 100 mM NaCl, 0.001% Tween-20, 2.5 mM MgCl2, 300 μM CaCl2). The thermodynamic parameters for proMMP9(20-445;ΔFnII) (SEQ ID NO:6) are as follows: Tm (° C.)=72 (+/−0.1), ΔUH(Tm) (cal mol^−1)=160000(+/−5000), ΔUS(Tm) (cal mol^−1 K^−1)=434, ΔUCp ([…])=2400.

[2] = biological target: T2, proMMP9(67-444;ΔFnII) (SEQ ID NO:5) (Homo sapiens, UniProt P14780, DEL216-390); experiment: ThermoFluor binding assay with proMMP9(67-444;ΔFnII)
T2 construct: start methionine (N); made in house; host or cells: E. coli BL21(DE3) RIL
T2 sequence (P14780 with tags, fused parts or gaps DEL216-390): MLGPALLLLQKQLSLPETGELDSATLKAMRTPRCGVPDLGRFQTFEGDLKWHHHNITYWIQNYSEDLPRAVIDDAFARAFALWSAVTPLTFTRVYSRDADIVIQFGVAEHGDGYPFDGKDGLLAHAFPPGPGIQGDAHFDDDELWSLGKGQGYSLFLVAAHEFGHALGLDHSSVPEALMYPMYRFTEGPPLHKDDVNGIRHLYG
Procedure: as §1, §2, §3, §4
The protein sample preparations had to include a desalting buffer exchange step via a PD-10 gravity column (GE Healthcare). The desalting buffer exchange was performed prior to diluting the protein to the final assay concentration of 3.5 μM proMMP9(67-444;ΔFnII) (SEQ ID NO:5). The concentration of proMMP9(67-444;ΔFnII) (SEQ ID NO:5) was determined spectrophotometrically based on a calculated extinction coefficient of ε280=33900 M^−1cm^−1, a calculated molecular weight of 22.6 kDa, and calculated pI of 5.20. ThermoFluor® reference conditions were defined as follows: 80 μg/mL (3.5 μM) proMMP9(67-444;ΔFnII) (SEQ ID NO:5), 50 μM 1,8-ANS, pH 7.0 Buffer (50 mM HEPES pH 7.0, 100 mM NaCl, 0.001% Tween-20, 2.5 mM MgCl2, 300 μM CaCl2). The thermodynamic parameters for proMMP9(67-444;ΔFnII) (SEQ ID NO:5) are as follows: Tm (° C.)=63 (+/−0.1), ΔUH(Tm) (cal mol^−1)=105000(+/−5000), ΔUS(Tm) (cal mol^−1 K^−1)=[…], ΔUCp (cal mol^−1 K^−1)=2000.

[3] = biological target: T3, full-length proMMP9(1-707) (SEQ ID NO:1) (Homo sapiens, UniProt P14780, R574P); experiment: proMMP9/MMP3 P126 Activation Assay; format: biochemical; details: 20 nM proMMP9, 20 nM MMP3, 80 min 37° C.
T3 construct: made in house; host or cells: HEK293 (proMMP9, secreted); E. coli (MMP3)
Procedure: The reaction volume was 50 μL. […] Reactivity of residual MMP3 towards P-126 substrate was minimal under these conditions.

[4] = biological target: T4, proMMP13(1-268) (SEQ ID NO:7) (Homo sapiens, UniProt P45452); experiment: ThermoFluor binding assay with proMMP13(1-268); set-up: 6x-histidine (C); made in house
Procedure: as §1, §2, §3, §4
The proMMP13(1-268) (SEQ ID NO:7) protein sample preparations included a desalting buffer exchange step via a PD-10 gravity column (GE Healthcare). The desalting buffer exchange was performed prior to diluting the protein to the final assay concentration of 3.5 μM. The concentration of proMMP13(1-268) (SEQ ID NO:7) was estimated spectrophotometrically based on a calculated extinction coefficient of ε280=37000 M^−1cm^−1, a calculated molecular weight of 30.8 kDa, and calculated pI of 5.33. ThermoFluor® reference conditions were defined as follows: 100 μg/mL proMMP13(1-268) (SEQ ID NO:7), 25 μM 1,8-ANS, pH 7.0 Buffer (50 mM HEPES pH 7.0, 100 mM NaCl, 0.001% Tween-20, 2.5 mM MgCl2, 300 μM CaCl2). The thermodynamic parameters for proMMP13(1-268) (SEQ ID NO:7) are as follows: Tm (° C.)=67 (+/−0.1), ΔUH(Tm) (cal mol^−1)=107000(+/−5000), ΔUS(Tm) (cal mol^−1 K^−1)=318, ΔUCp (cal mol^−1 K^−1)=2600.

[5] = biological target: T4, proMMP13(1-268) (SEQ ID NO:7); experiment: ProMMP13/Plasmin P126 Activation Assay; format: biochemical; set-up: 6x-histidine (C); made in house; host or cells: HEK293 (transient transfection, secreted); details: 8 nM proMMP13, 16 nM plasmin, 40 min 37° C.
Procedure: On the day of assay, proMMP13(1-268) (SEQ ID NO:7) purified from HEK293 cells and plasmin were diluted to 160 nM and 320 nM, respectively, in assay buffer. The reaction volume was 50 μL. […] The plate was sealed and incubated for 40 min at 37° C. […] Plasmin was not reactive towards P-126 substrate under these conditions.

T3 sequence (P14780 20-707 R574P): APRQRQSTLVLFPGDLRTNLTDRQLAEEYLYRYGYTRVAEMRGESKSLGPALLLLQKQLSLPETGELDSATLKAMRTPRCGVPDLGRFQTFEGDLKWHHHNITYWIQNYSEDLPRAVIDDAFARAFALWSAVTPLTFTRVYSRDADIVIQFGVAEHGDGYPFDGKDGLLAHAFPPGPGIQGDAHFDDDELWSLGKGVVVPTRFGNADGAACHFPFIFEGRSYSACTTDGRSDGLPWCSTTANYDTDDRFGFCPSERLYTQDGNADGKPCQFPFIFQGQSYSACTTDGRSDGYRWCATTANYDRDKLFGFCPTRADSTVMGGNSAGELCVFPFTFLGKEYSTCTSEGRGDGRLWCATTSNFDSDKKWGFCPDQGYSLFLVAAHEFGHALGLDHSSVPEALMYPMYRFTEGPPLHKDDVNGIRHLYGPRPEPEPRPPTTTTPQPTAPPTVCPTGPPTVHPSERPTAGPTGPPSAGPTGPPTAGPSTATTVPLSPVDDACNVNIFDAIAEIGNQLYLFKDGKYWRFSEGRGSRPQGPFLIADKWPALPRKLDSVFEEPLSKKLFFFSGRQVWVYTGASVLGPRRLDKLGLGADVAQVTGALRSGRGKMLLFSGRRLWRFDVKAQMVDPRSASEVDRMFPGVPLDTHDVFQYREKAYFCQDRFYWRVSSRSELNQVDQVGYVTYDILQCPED

SMILES | Kd [1] [µM] | Kd [2] [µM] | IC50 [3] [µM] | Kd [4] [µM] | IC50 [5] [µM]
CCOc1ccc(C#N)cc1Nc1nc(-c2cnn(C)c2)cs1 [Example 5, 4-Ethoxy-3-[4-(1-methyl-1H-pyrazol-4-yl)-thiazol-2-ylamino]-benzonitrile] | 8.9 | 14 |  | 17 | 
Cc1nc(C)n(C)c1-c1csc(Nc2cc(S(N)(=O)=O)ccc2OC(C)C)n1 [Example 1, 4-Isopropoxy-3-[4-(2,3,5-trimethyl-3H-imidazol-4-yl)-thiazol-2-ylamino]-benzenesulfonamide] | 4.7 | 8.6 | 2.3 | 1.6 | 
Cc1nc(C)n(C)c1-c1csc(Nc2cc(C(N)=O)ccc2OC(C)C)n1 [Example 7, 4-Isopropoxy-3-[4-(2,3,5-trimethyl-3H-imidazol-4-yl)-thiazol-2-ylamino]-benzamide.TFA] | 5.9 | 42 | 1.9 |  | 

The remaining compounds from weak to strong by Kd [1], led by results:

Kd [1] [µM] | Kd [2] [µM] | IC50 [3] [µM] | Kd [4] [µM] | IC50 [5] [µM] | SMILES
76 | 36 | ~5 | > 95 |  | CCOc1ccc(C#N)cc1Nc1nc(-n2cc(C)nc2C)cs1 [Example 4, 3-[4-(2,4-Dimethyl-imidazol-1-yl)-thiazol-2-ylamino]-4-ethoxy-benzonitrile]
12 | 33.2 | ~6 | 10 |  | Cc1nc(-c2csc(Nc3cc(S(N)(=O)=O)ccc3OC(C)C)n2)c(C)n1C [Example 2, 4-Isopropoxy-3-[4-(1,2,5-trimethyl-1H-imidazol-4-yl)-thiazol-2-ylamino]-benzenesulfonamide.TFA]
4.8 | > 95 | 0.79 | 5.1 |  | Cc1nc(-c2csc(Nc3cc(C(N)=O)ccc3OC(C)C)n2)c(C)[nH]1 [Example 3, 3-[4-(2,5-Dimethyl-1H-imidazol-4-yl)-thiazol-2-ylamino]-4-isopropoxy-benzamide.TFA]
0.17 | 7.2 | 0.27 | 6.1 | 6 | Cc1nc(C)c(-c2csc(Nc3cc(C(N)=O)ccc3OC(C)C)n2)o1 [Example 6, 3-[4-(2,4-Dimethyl-oxazol-5-yl)-thiazol-2-ylamino]-4-isopropoxy-benzamide]
